Experiments:
Format in all cases: functional, organism-based
[1] = molecular target: Multidrug resistance protein 1a (Rattus norvegicus) (UniProt Q6PSM0); test: TP_TRANSPORTER: Western in vivo Wistar rat, liver
[2] = molecular target: Multidrug resistance protein 1a (Rattus norvegicus) (UniProt Q6PSM0); test: (§1) TP_TRANSPORTER: RT-PCR in vivo Wistar rat, liver
[3] = molecular target: ATP-dependent translocase ABCB1 (Rattus norvegicus, UniProt P43245); test: as §1
Sequence of ATP-dependent translocase ABCB1 (P43245 whole entry): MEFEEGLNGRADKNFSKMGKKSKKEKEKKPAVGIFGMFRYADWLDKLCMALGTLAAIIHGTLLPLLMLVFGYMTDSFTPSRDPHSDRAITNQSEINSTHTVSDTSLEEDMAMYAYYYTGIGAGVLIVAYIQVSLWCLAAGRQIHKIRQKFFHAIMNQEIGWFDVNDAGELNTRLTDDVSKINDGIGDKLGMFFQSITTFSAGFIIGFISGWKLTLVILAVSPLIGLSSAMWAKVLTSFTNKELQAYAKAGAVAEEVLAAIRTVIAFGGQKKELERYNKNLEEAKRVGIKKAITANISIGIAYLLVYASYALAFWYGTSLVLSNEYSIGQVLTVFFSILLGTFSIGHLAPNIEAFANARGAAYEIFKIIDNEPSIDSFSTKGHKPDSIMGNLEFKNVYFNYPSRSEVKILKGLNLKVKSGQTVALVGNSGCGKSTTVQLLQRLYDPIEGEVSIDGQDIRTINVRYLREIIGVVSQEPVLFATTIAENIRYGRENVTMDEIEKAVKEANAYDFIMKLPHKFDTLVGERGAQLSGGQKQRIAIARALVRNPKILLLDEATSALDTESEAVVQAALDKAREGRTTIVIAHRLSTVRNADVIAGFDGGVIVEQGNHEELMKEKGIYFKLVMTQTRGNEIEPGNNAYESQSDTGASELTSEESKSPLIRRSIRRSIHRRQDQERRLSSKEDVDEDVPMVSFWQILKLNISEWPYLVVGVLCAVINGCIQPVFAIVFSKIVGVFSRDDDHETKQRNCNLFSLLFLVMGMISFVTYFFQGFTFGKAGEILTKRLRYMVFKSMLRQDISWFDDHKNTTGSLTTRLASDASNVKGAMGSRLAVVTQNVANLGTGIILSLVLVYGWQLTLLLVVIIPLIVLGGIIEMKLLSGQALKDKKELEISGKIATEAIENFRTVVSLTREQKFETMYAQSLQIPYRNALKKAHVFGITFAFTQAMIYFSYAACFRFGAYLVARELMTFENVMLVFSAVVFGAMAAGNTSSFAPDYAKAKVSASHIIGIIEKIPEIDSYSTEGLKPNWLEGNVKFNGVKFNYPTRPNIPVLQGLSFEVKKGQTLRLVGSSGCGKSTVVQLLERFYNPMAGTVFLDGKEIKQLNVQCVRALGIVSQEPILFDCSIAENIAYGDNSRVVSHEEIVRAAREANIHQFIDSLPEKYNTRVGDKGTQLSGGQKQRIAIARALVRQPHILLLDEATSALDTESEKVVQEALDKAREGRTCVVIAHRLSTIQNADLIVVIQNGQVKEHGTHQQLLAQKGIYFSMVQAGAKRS

Sequence of Multidrug resistance protein 1a (Rattus norvegicus) (Q6PSM0 as listed by the source): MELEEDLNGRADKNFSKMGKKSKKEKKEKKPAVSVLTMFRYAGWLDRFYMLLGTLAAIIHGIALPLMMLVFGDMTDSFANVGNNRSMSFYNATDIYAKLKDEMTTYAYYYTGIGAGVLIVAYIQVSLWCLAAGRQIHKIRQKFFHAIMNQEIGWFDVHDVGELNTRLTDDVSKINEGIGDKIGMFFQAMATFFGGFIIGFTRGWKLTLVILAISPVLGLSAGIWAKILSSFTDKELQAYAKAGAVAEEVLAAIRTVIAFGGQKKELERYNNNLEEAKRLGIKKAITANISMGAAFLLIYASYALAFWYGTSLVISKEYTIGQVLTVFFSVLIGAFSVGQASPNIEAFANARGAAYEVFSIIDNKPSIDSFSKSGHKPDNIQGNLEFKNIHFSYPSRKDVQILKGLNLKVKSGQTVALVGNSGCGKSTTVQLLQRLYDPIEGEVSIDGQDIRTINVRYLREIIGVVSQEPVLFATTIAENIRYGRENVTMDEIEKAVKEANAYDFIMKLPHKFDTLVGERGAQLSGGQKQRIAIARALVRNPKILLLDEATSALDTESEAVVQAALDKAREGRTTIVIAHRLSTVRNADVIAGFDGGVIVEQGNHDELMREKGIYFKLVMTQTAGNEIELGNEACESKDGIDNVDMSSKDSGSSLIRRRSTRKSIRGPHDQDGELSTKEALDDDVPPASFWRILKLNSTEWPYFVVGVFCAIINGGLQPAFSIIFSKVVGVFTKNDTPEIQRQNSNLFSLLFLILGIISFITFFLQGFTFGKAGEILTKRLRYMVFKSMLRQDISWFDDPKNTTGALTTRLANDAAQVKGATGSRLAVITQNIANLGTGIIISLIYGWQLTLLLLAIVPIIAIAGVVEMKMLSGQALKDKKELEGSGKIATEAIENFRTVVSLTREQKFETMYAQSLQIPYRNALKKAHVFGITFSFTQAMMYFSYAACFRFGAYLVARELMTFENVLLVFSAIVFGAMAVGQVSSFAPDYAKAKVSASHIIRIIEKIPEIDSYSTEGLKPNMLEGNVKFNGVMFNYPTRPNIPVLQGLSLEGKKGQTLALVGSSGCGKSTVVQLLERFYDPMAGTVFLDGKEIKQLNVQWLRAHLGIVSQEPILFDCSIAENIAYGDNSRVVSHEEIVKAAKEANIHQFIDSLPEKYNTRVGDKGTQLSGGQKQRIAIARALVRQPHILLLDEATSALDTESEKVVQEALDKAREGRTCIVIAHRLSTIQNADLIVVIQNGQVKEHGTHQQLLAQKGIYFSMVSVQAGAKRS

In the case of `CC(=O)Nc1ccc2c(c1)Cc1ccccc1-2` [2-ACETYLAMINOFLUORENE], the Activity [1] is reported as “inducer [+]”, the Activity [2] is reported as “inducer [+]” and the Activity [3] is reported as “inducer [+]”.
